Patent US20100249083A1, “16,17-CARBOCYCLIC CONDENSED STEROID COMPOUNDS HAVING SELECTIVE ESTROGENIC ACTIVITY” (N.V. Organon, priority 2000, published 2010)

What was measured:
[1] = test system: ovariectomised (OVX) rats; experiment: Test for prevention of ovariectomy-induced bone loss in rats (anti-osteoporosis test); type: in vivo, rat; settings: oral, 4 weeks, trabecular bone mineral density difference 40-60%
From the text: Ovariectomy of rats induces bone loss, which is due to estrogen deficiency. Administration of estrogenic compounds prevents this effect. The test is used to evaluate a compound for anti-osteoporotic activity in ovariectomised (OVX) rats. The effect on bone mass can be evaluated by peripheral Quantitative Computed Tomography (pQCT), or by quantitative analysis of X-ray pictures. Plasma osteocalcin and urinary deoxypyridinoline, calcium and phosphate gives information on bone metabolism. Increase of uterine weight and decrease of body and thymus weight reflect estrogenic effect.
Mature virgin 225-250 g female Wistar rats. Strain: Hsd/Cpd:Wu, SPF-bred by Harlan, CPB, Zeist, The Netherlands.
On day 1 of the experiment the rats are weighed and distributed over the cages in order of bodyweight, whereby the rat with the smallest bodyweight is placed in the first cage and the heaviest rat in the final cage. Treatments are randomised over the rats.
Sham-operation and ovariectomy are performed under ether anaesthesia. After recovery from the anaesthesia, within 24 h, vehicle, reference compound or test compound is administered once or twice daily for 4 weeks. […] Trabecular bone mineral density of the metaphyseal part of the femur (FBMDDIS mg/cm^3) is measured with a pQCT (peripheral Quantitative Computed Tomography machine; XCT 960A, Stratec, Birkenfeld, Germany). […]

[2] = Allen Doisy test for estrogenic activity in vivo
Experimental: In vivo estrogenic activity was determined by means of the Allen Doisy test, described in F. Allen, L. A. Doisy, J. Amer. Med. Assoc., 81, 819-821 (1923)

[3] = biological target: T1, human estrogen receptor α (hERα) (Homo sapiens, UniProt P03372); settings: compared with (17β)-estradiol; first value of Erα/Erβ pair
T1 sequence (P03372 1-595): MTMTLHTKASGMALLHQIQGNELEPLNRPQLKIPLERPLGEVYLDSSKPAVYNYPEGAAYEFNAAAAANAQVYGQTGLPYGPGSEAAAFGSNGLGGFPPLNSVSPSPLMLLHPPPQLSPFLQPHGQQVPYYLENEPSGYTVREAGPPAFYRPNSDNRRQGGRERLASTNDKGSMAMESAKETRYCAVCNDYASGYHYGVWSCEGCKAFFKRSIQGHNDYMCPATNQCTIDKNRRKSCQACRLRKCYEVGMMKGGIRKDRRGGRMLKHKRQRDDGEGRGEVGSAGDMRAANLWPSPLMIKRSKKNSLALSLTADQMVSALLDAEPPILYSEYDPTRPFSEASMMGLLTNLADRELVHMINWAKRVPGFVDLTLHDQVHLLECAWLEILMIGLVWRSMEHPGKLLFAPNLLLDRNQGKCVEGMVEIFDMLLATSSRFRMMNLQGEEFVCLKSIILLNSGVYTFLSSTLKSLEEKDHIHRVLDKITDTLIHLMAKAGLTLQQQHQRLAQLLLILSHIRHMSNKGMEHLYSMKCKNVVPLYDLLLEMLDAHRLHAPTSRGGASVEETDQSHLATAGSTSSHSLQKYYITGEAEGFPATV
Experimental: (§2) Compounds are tested for their estrogen receptor activity in a binding assay and in a transactivation assay using the human estrogen receptor α or β.
(§3) Competitive binding to cytoplasmic human estrogen receptor α or β from recombinant Chinese hamster ovary (CHO) cells is used to estimate the relative binding affinity (═RBA) potency ratio) of a test compound as compared with (17β)-estradiol (E2) for estrogen receptors α or β present in the cytosol of recombinant CHO cells, stably transfected with the human estrogen receptor α (hERα) or β receptor (hERβ).

[4] = biological target: T2, human estrogen receptor β (hERβ) (Homo sapiens, UniProt Q92731); settings: compared with (17β)-estradiol; second value of Erα/Erβ pair
T2 sequence (Q92731 whole entry): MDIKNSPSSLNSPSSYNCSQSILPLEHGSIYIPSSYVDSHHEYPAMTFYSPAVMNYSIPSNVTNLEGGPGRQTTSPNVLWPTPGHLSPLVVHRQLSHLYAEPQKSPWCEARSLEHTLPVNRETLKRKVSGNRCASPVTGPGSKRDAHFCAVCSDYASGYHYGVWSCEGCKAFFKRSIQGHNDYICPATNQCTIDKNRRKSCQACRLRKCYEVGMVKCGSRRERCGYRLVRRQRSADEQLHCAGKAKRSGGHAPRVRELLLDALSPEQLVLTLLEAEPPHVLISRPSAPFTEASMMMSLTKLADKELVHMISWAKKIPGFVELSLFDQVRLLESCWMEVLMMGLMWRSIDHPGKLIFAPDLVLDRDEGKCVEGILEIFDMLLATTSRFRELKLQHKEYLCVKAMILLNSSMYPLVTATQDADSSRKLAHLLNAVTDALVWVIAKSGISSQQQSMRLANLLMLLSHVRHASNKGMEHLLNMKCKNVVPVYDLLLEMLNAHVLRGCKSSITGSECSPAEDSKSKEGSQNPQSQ
Experimental: as §2, §3

[5] = biological target: T1, human estrogen receptor α (hERα); experiment: Estrogenic agonistic transactivation assay, CHO cells with rat oxytocin promoter and luciferase reporter; type: cell-based; design: expressed in transfected cells; host or cells: CHO cells with rat oxytocin promoter and luciferase reporter; settings: compared with estradiol; first value of Erα/Erβ pair
From the text: (§1) The estrogenic agonistic transactivation (potency ratio) of a test compound to stimulate the transactivation of the enzyme luciferase mediated via the estrogen receptors hERα or hERβ is compared with the standard estrogen estradiol. The antiestrogenic activity (potency ratio) of a test compound to inhibit the transactivation of the enzyme luciferase mediated via the estrogen receptors hERα or hERβ by the (17β)-estradiol is compared with the standard ICI 164.384 (=(7α,17β)-N-butyl-3,17-dihydroxy-N-methylestra-1,3,5(10)-triene-7-undecanamide).

[6] = biological target: T2, human estrogen receptor β (hERβ); experiment: as above; type: cell-based; design: expressed in transfected cells; host or cells: CHO cells with rat oxytocin promoter and luciferase reporter; settings: compared with estradiol; second value of Erα/Erβ pair
From the text: as §1

Structure (SMILES) | Osteoporosis test, minimal active dose (MAD) [1] [mg/kg] | Allen Doisy test, active dose ([2]; oral) [mg/kg] | Allen Doisy test, active dose ([2]; sc) [mg/kg] | Binding-assay Erα (relative binding affinity, potency ratio) [3] | Binding-assay Erβ (relative binding affinity, potency ratio) [4] | Transactivation Erα (agonist potency ratio) [5] | Transactivation Erβ (agonist potency ratio) [6]
CCCC1Cc2cc(O)ccc2C2CCC3(C)C(CC4CCCCC43O)C12 (stereo not drawn) [(7α,16β,17α)-7-propyl-16,24-cyclo-19,21-dinorchola-1,3,5(10)-triene-3,17-diol] | 0.19 | 0.125 | 0.024 | 15 | 7 | 0.3 | < 0.1
CCC[C@@H]1Cc2cc(O)ccc2C2CC[C@@]3(C)C(C[C@H]4CC[C@H](O)C[C@]43O)C21 (stereo partly drawn) [E, (7α,16β,17 α,22S)-7-propyl-16,24-cyclo-19,21-dinorchola-1,3,5(10)-triene-3,17,22-triol] | 0.03 | 0.03 | 0.005 |  |  |  | 
